Reference: paper PMC9823331, “Permeability of New Antifungal Fluconazole Derivatives through a Lipophilic Membrane: Experiment and Modeling” (Molecules, 2023)

Tests used:
[1] = Distribution in the 1-octanol/buffer pH 7.4 system; format: physicochemical; conditions: calculated by Henderson–Hasselbalch equation
[2] = design: method as in PMID 33713781; conditions: cited from earlier work
[3] = tested on: C. parapsilosis ATCC 22019; design: method as in earlier work; conditions: cited from earlier work
[4] = Membrane permeability assay through the PermeaPad barrier (Franz diffusion cell); format: in vitro ADME; conditions: buffer pH 7.4, 37 °C, values are Papp multiplied by 10^5, read-out: Papp⋅10^5, apparent permeability coefficient
From the text: A vertical-type Franz diffusion cell (PermeGear, Inc., Hellertown, PA, USA) was used to measure the permeability of the studied compounds. The biomimetic lipophilic PermeaPad barrier (PHABIOC, Germany, www.permeapad.com, accessed on 20 May 2021) fully described by di Cagno et al. was employed in the present study to simulate the morphology and properties of the biologic membranes. This membrane was chosen because of its advantageous properties and user friendliness. PermeaPad belongs to cell-free permeation systems. It is composed of two cellulose membranes with a thin layer of phosphatidylcholine (S-100) between them. […]
Firstly, the donor chamber was filled with the donor solution of the tested compound in buffer pH 7.4, then the PermeaPad barrier was mounted between the donor and receptor parts of the diffusion cell (0.785 cm^2 effective surface area) carefully avoiding the air bubbles (which can minimize the active area of the membrane, thus, slowing the permeation). […] The sample solution concentrations were measured spectrophotometrically (Spectramax 190; Molecular Devices, Molecular Devices Corporation, San Jose, CA, USA) in 96-well UV black plates (Costar) at λ = 270 nm. […]
The apparent permeability coefficient (Papp) was calculated by normalizing the slope (J) by the compound concentration in the donor solution (C0) by the equation:(9) Papp=J/C0 […]

Row | SMILES | logK0, distribution coefficient for the uncharged particles [1] | logKoct/buf, apparent distribution coefficient in the 1-octanol/buffer pH 7.4 system [2] | log(1/MIC) [3] | Papp at 5 h [4] [×10⁻⁶ cm/s]
1 | COc1ccccc1-n1c(=S)sc2c(=O)n(CC(=O)NCC(O)(Cn3cncn3)c3ccc(F)cc3F)cnc21 (centres unmarked) [VII, N-[2-(2,4-difluorophenyl)-2-hydroxy-3-(1,2,4-triazol-1-yl)propyl]-2-[3-(2-methoxyphenyl)-7-oxo-2-thioxo-thiazolo[4,5-d]pyrimidin-6-yl]acetamide] | -4.73 | 0.80 | -1.51 | –
2 | COc1ccccc1-n1c(=S)sc2c(=O)n(CC(O)(Cn3cncn3)c3ccc(F)cc3F)cnc21 (centres unmarked) [II, N-[2-(2,4-difluorophenyl)-2-hydroxy-3-(1,2,4-triazol-1-yl)propyl]-3-(2-methoxyphenyl)-2-thioxo-thiazolo[4,5-d]pyrimidin-7-one] | -4.66 | – | -0.90 | –
3 | O=C(Cn1cnc2c(sc(=S)n2-c2ccc(F)cc2)c1=O)NCC(O)(Cn1cncn1)c1ccc(F)cc1F (centres unmarked) [VI, N-[2-(2,4-difluorophenyl)-2-hydroxy-3-(1,2,4-triazol-1-yl)propyl]-2-[3-(4-fluorophenyl)-7-oxo-2-thioxo-thiazolo[4,5-d]pyrimidin-6-yl]acetamide] | -4.72 | – | -1.51 | –
4 | Cc1ccc(-n2c(=S)sc3c(=O)n(CC(=O)NCC(O)(Cn4cncn4)c4ccc(F)cc4F)cnc32)cc1 (centres unmarked) [IV, N-[2-(2,4-difluorophenyl)-2-hydroxy-3-(1,2,4-triazol-1-yl)propyl]-2-[7-oxo-3-(p-tolyl)-2-thioxo-thiazolo[4,5-d]pyrimidin-6-yl]acetamide] | -4.68 | 1.27 | -1.51 | –
5 | O=C(Cn1cnc2c(sc(=S)n2-c2ccc(Cl)cc2)c1=O)NCC(O)(Cn1cncn1)c1ccc(F)cc1F (centres unmarked) [V, N-[2-(2,4-difluorophenyl)-2-hydroxy-3-(1,2,4-triazol-1-yl)propyl]-2-[3-(4-chlorophenyl)-7-oxo-2-thioxo-thiazolo[4,5-d]pyrimidin-6-yl]-acetamide] | -4.69 | – | -1.51 | –
6 | O=c1c2sc(=S)n(-c3ccc(F)cc3)c2ncn1CC(O)(Cn1cncn1)c1ccc(F)cc1F (centres unmarked) [III, N-[2-(2,4-difluorophenyl)-2-hydroxy-3-(1,2,4-triazol-1-yl)propyl]-3-(4-fluorophenyl)-2-thioxo-thiazolo[4,5-d]pyrimidin-7-one] | -4.76 | – | -1.51 | –
7 | Cc1ccc(-n2c(=S)sc3c(=O)n(CC(O)(Cn4cncn4)c4ccc(F)cc4F)cnc32)cc1 (centres unmarked) [I, N-[2-(2,4-difluorophenyl)-2-hydroxy-3-(1,2,4-triazol-1-yl)propyl]-3-(p-tolyl)-2-thioxo-thiazolo[4,5-d]pyrimidin-7-one] | – | 0.79 | -1.51 | –
8 | Cc1ccc(-n2c(=S)sc3c(=O)n(CCN4CCN(CC(O)(Cn5cncn5)c5ccc(F)cc5F)CC4)cnc32)cc1 (centres unmarked) [XII, N-[2-[4-[2-(2,4-difluorophenyl)-2-hydroxy-3-(1,2,4-triazol-1-yl)propyl]piperazin-1-yl]ethyl]-2-methyl-3-(p-tolyl)-2-thioxo-thiazolo[4,5-d]pyrimidin-7-one] | -3.95 | 2.90 | 0.30 | 18.8 ± 0.42
